Test results: ChEMBL document CHEMBL3112480, “γ-Alkylidene-γ-lactones and isobutylpyrrol-2(5H)-ones analogues to rubrolides as inhibitors of biofilm formation by gram-positive and gram-negative bacteria” (Bioorg Med Chem Lett, 2014)
Values after ≈ are worked out from the molar mass of the structure shown.

Experiments:
[1] = tested on: Staphylococcus epidermidis; assay: Antibacterial activity against Staphylococcus epidermidis ATCC 35547 assessed as effect on planktonic growth at 0.34 ug/ml after 20 hrs relative to control; assay type: functional
Pseudomonas aeruginosa [2] = assay: Antibacterial activity against Pseudomonas aeruginosa ATCC 27853 assessed as effect on planktonic growth at 87.5 ug/ml after 20 hrs relative to control; assay type: functional
[3] = tested on: Staphylococcus epidermidis; assay: Antibacterial activity against Staphylococcus epidermidis ATCC 35547 assessed as effect on planktonic growth at 1.37 ug/ml after 20 hrs relative to control; assay type: functional
[4] = tested on: Staphylococcus epidermidis; assay: Antibacterial activity against Staphylococcus epidermidis ATCC 35547 assessed as effect on planktonic growth at 10.9 ug/ml after 20 hrs relative to control; assay type: functional
Streptococcus mutans [5] = assay: Antibacterial activity against Streptococcus mutans ATCC 25175 assessed as effect on planktonic growth at 0.68 ug/ml after 20 hrs relative to control; assay type: functional
Staphylococcus aureus [6] = assay: Antibacterial activity against Staphylococcus aureus ATCC 25923 assessed as effect on planktonic growth at 43.8 ug/ml after 20 hrs relative to control; assay type: functional
Pseudomonas aeruginosa [7] = assay: Antibacterial activity against Pseudomonas aeruginosa ATCC 27853 assessed as effect on planktonic growth at 2.73 ug/ml after 20 hrs relative to control; assay type: functional
[8] = tested on: Staphylococcus epidermidis; assay: Antibacterial activity against Staphylococcus epidermidis ATCC 35547 assessed as effect on planktonic growth at 2.73 ug/ml after 20 hrs relative to control; assay type: functional
Streptococcus mutans [9] = assay: Antibacterial activity against Streptococcus mutans ATCC 25175 assessed as effect on planktonic growth at 2.73 ug/ml after 20 hrs relative to control; assay type: functional
Streptococcus mutans [10] = assay: Antibacterial activity against Streptococcus mutans ATCC 25175 assessed as effect on planktonic growth at 87.5 ug/ml after 20 hrs relative to control; assay type: functional
Pseudomonas aeruginosa [11] = assay: Antibacterial activity against Pseudomonas aeruginosa ATCC 27853 assessed as effect on planktonic growth at 1.37 ug/ml after 20 hrs relative to control; assay type: functional
Streptococcus mutans [12] = assay: Antibacterial activity against Streptococcus mutans ATCC 25175 assessed as effect on planktonic growth at 0.17 ug/ml after 20 hrs relative to control; assay type: functional
[13] = tested on: Staphylococcus epidermidis; assay: Antibacterial activity against Staphylococcus epidermidis ATCC 35547 assessed as effect on planktonic growth at 0.17 ug/ml after 20 hrs relative to control; assay type: functional
Pseudomonas aeruginosa [14] = assay: Antibacterial activity against Pseudomonas aeruginosa ATCC 27853 assessed as effect on planktonic growth at 0.34 ug/ml after 20 hrs relative to control; assay type: functional
Streptococcus mutans [15] = assay: Antibacterial activity against Streptococcus mutans ATCC 25175 assessed as effect on planktonic growth at 0.34 ug/ml after 20 hrs relative to control; assay type: functional
Staphylococcus aureus [16] = assay: Antibacterial activity against Staphylococcus aureus ATCC 25923 assessed as effect on planktonic growth at 5.5 ug/ml after 20 hrs relative to control; assay type: functional
Pseudomonas aeruginosa [17] = assay: Antibacterial activity against Pseudomonas aeruginosa ATCC 27853 assessed as inhibition of biofilm formation after 20 hrs by crystal-violet staining method; assay type: functional, organism-based
Streptococcus mutans [18] = assay: Antibacterial activity against Streptococcus mutans ATCC 25175 assessed as effect on planktonic growth at 43.8 ug/ml after 20 hrs relative to control; assay type: functional
[19] = tested on: Staphylococcus epidermidis; assay: Antibacterial activity against Staphylococcus epidermidis ATCC 35547 assessed as effect on planktonic growth at 5.5 ug/ml after 20 hrs relative to control; assay type: functional
Streptococcus mutans [20] = assay: Antibacterial activity against Streptococcus mutans ATCC 25175 assessed as effect on planktonic growth at 1.37 ug/ml after 20 hrs relative to control; assay type: functional
Staphylococcus aureus [21] = assay: Antibacterial activity against Staphylococcus aureus ATCC 25923 assessed as effect on planktonic growth at 10.9 ug/ml after 20 hrs relative to control; assay type: functional
Staphylococcus aureus [22] = assay: Antibacterial activity against Staphylococcus aureus ATCC 25923 assessed as effect on planktonic growth at 0.34 ug/ml after 20 hrs relative to control; assay type: functional
[23] = tested on: Staphylococcus epidermidis; assay: Antibacterial activity against Staphylococcus epidermidis ATCC 35547 assessed as effect on planktonic growth at 21.9 ug/ml after 20 hrs relative to control; assay type: functional
Staphylococcus aureus [24] = assay: Antibacterial activity against Staphylococcus aureus ATCC 25923 assessed as effect on planktonic growth at 2.73 ug/ml after 20 hrs relative to control; assay type: functional
Pseudomonas aeruginosa [25] = assay: Antibacterial activity against Pseudomonas aeruginosa ATCC 27853 assessed as effect on planktonic growth at 43.8 ug/ml after 20 hrs relative to control; assay type: functional
Pseudomonas aeruginosa [26] = assay: Antibacterial activity against Pseudomonas aeruginosa ATCC 27853 assessed as effect on planktonic growth at 10.9 ug/ml after 20 hrs relative to control; assay type: functional
Staphylococcus aureus [27] = assay: Antibacterial activity against Staphylococcus aureus ATCC 25923 assessed as effect on planktonic growth at 1.37 ug/ml after 20 hrs relative to control; assay type: functional
[28] = tested on: Staphylococcus epidermidis; assay: Antibacterial activity against Staphylococcus epidermidis ATCC 35547 assessed as effect on planktonic growth at 87.5 ug/ml after 20 hrs relative to control; assay type: functional
Streptococcus mutans [29] = assay: Antibacterial activity against Streptococcus mutans ATCC 25175 assessed as effect on planktonic growth at 5.5 ug/ml after 20 hrs relative to control; assay type: functional
Pseudomonas aeruginosa [30] = assay: Antibacterial activity against Pseudomonas aeruginosa ATCC 27853 assessed as effect on planktonic growth at 0.68 ug/ml after 20 hrs relative to control; assay type: functional
Staphylococcus aureus [31] = assay: Antibacterial activity against Staphylococcus aureus ATCC 25923 assessed as effect on planktonic growth at 21.9 ug/ml after 20 hrs relative to control; assay type: functional
[32] = tested on: Staphylococcus epidermidis; assay: Antibacterial activity against Staphylococcus epidermidis ATCC 35547 assessed as effect on planktonic growth at 43.8 ug/ml after 20 hrs relative to control; assay type: functional
Pseudomonas aeruginosa [33] = assay: Antibacterial activity against Pseudomonas aeruginosa ATCC 27853 assessed as effect on planktonic growth at 21.9 ug/ml after 20 hrs relative to control; assay type: functional
Streptococcus mutans [34] = assay: Antibacterial activity against Streptococcus mutans ATCC 25175 assessed as effect on planktonic growth at 10.9 ug/ml after 20 hrs relative to control; assay type: functional
Staphylococcus aureus [35] = assay: Antibacterial activity against Staphylococcus aureus ATCC 25923 assessed as effect on planktonic growth at 0.68 ug/ml after 20 hrs relative to control; assay type: functional
[36] = tested on: Staphylococcus epidermidis; assay: Antibacterial activity against Staphylococcus epidermidis ATCC 35547 assessed as effect on planktonic growth at 0.68 ug/ml after 20 hrs relative to control; assay type: functional
Staphylococcus aureus [37] = assay: Antibacterial activity against Staphylococcus aureus ATCC 25923 assessed as effect on planktonic growth at 0.17 ug/ml after 20 hrs relative to control; assay type: functional
Pseudomonas aeruginosa [38] = assay: Antibacterial activity against Pseudomonas aeruginosa ATCC 27853 assessed as effect on planktonic growth at 0.17 ug/ml after 20 hrs relative to control; assay type: functional
Staphylococcus aureus [39] = assay: Antibacterial activity against Staphylococcus aureus ATCC 25923 assessed as effect on planktonic growth at 87.5 ug/ml after 20 hrs relative to control; assay type: functional
Streptococcus mutans [40] = assay: Antibacterial activity against Streptococcus mutans ATCC 25175 assessed as effect on planktonic growth at 21.9 ug/ml after 20 hrs relative to control; assay type: functional
[41] = tested on: Staphylococcus epidermidis; assay: Antibacterial activity against Staphylococcus epidermidis ATCC 35547 assessed as inhibition of biofilm formation after 20 hrs by crystal-violet staining method; assay type: functional, organism-based; conditions: for IC50: ATCC 35547, 20 h
Pseudomonas aeruginosa [42] = assay: Antibacterial activity against Pseudomonas aeruginosa ATCC 27853 assessed as effect on planktonic growth at 5.5 ug/ml after 20 hrs relative to control; assay type: functional

## COc1ccccc1C1=C(Br)C(=O)N(CC(C)C)/C1=C\c1ccc(C(F)(F)F)cc1
[1]
  Activity: -17%
Pseudomonas aeruginosa [2]
  Activity: 35.2%
[3]
  Activity: -17.9%
[4]
  Activity: 6.6%
Streptococcus mutans [5]
  Activity: 5.5%
Staphylococcus aureus [6]
  Activity: -15.4%
Pseudomonas aeruginosa [7]
  Activity: -9.2%
[8]
  Activity: -21.2%
Streptococcus mutans [9]
  Activity: 14%
Streptococcus mutans [10]
  Activity: 3.6%
Pseudomonas aeruginosa [11]
  Activity: -5.9%
Streptococcus mutans [12]
  Activity: 0.3%
[13]
  Activity: -22.1%
Pseudomonas aeruginosa [14]
  Activity: -1.7%
Streptococcus mutans [15]
  Activity: 0.6%
Staphylococcus aureus [16]
  Activity: -33.5%
Pseudomonas aeruginosa [17]
  inhibition: Dose-dependent effect
Streptococcus mutans [18]
  Activity: -13.5%
[19]
  Activity: -14.8%
Streptococcus mutans [20]
  Activity: 10.7%
Staphylococcus aureus [21]
  Activity: -33.8%
Staphylococcus aureus [22]
  Activity: -14.7%
[23]
  Activity: 38.7%
Staphylococcus aureus [24]
  Activity: -35.6%
Pseudomonas aeruginosa [25]
  Activity: 44%
Pseudomonas aeruginosa [26]
  Activity: 35.6%
Staphylococcus aureus [27]
  Activity: -30.9%
[28]
  Activity: -6.3%
Streptococcus mutans [29]
  Activity: -3%
Pseudomonas aeruginosa [30]
  Activity: 0.1%
Staphylococcus aureus [31]
  Activity: -29.3%
[32]
  Activity: 37.8%
Pseudomonas aeruginosa [33]
  Activity: 53.2%
Streptococcus mutans [34]
  Activity: -12.9%
Staphylococcus aureus [35]
  Activity: -18.1%
[36]
  Activity: -13.2%
Staphylococcus aureus [37]
  Activity: -5.8%
Pseudomonas aeruginosa [38]
  Activity: -2.1%
Staphylococcus aureus [39]
  Activity: 1.8%
Streptococcus mutans [40]
  Activity: -11.6%
[41]
  inhibition: Dose-dependent effect
  IC50: 23 µg/mL (≈ 47.9 µM)
Pseudomonas aeruginosa [42]
  Activity: -1.7%

## COc1ccc(Br)cc1C1=C(Br)C(=O)N(CC(C)C)C1(O)Cc1ccc(Br)cc1 (stereo unspecified)
[1]
  Activity: 4.3%
Pseudomonas aeruginosa [2]
  Activity: 39.4%
[3]
  Activity: 8%
[4]
  Activity: 11.2%
Streptococcus mutans [5]
  Activity: -8%
Staphylococcus aureus [6]
  Activity: -13.7%
Pseudomonas aeruginosa [7]
  Activity: 0.8%
[8]
  Activity: 4.8%
Streptococcus mutans [9]
  Activity: -6%
Streptococcus mutans [10]
  Activity: 0.2%
Pseudomonas aeruginosa [11]
  Activity: -4.5%
Streptococcus mutans [12]
  Activity: -13.2%
[13]
  Activity: 2.1%
Pseudomonas aeruginosa [14]
  Activity: -5.7%
Streptococcus mutans [15]
  Activity: -7%
Staphylococcus aureus [16]
  Activity: -9%
Pseudomonas aeruginosa [17]
  inhibition: Dose-dependent effect
Streptococcus mutans [18]
  Activity: -17.9%
[19]
  Activity: -2.4%
Streptococcus mutans [20]
  Activity: 4%
Staphylococcus aureus [21]
  Activity: -11.3%
Staphylococcus aureus [22]
  Activity: -3.4%
[23]
  Activity: 55.8%
Staphylococcus aureus [24]
  Activity: -17.9%
Pseudomonas aeruginosa [25]
  Activity: 63.9%
Pseudomonas aeruginosa [26]
  Activity: 64.1%
Staphylococcus aureus [27]
  Activity: -14.8%
[28]
  Activity: 29.8%
Streptococcus mutans [29]
  Activity: -3%
Pseudomonas aeruginosa [30]
  Activity: -7%
Staphylococcus aureus [31]
  Activity: -15.6%
[32]
  Activity: 43.6%
Pseudomonas aeruginosa [33]
  Activity: 58.3%
Streptococcus mutans [34]
  Activity: -8%
Staphylococcus aureus [35]
  Activity: -10.8%
[36]
  Activity: -5.4%
Staphylococcus aureus [37]
  Activity: 1.1%
Pseudomonas aeruginosa [38]
  Activity: -4%
Staphylococcus aureus [39]
  Activity: 7.4%
Streptococcus mutans [40]
  Activity: -13.7%
[41]
  inhibition: Dose-dependent effect
  IC50: 13.3 µg/mL (≈ 22.6 µM)
Pseudomonas aeruginosa [42]
  Activity: 58.3%
